Data on 26 compounds can be found in US20250096297A1, “NOVEL AQUEOUS-PHASE REDOX FLOW BATTERIES” (KEMIWATT, priority 2022, published 2025).

≈ marks a conversion by molar mass, not a printed value. Read-outs that look alike come from different tables or passages of the source.

The conditions of data set [1]: conjugate acid of the base, cited from earlier work.
Data set [2] is described as follows: physchem. The conditions noted are these: aqueous buffer.
For data set [3] the following is noted: formed cation, cited from earlier work; for Volume: derived from the literature.
A short description of data set [4]: Chemical compatibility of bases with the posolyte: SOC of ferricyanide solution by linear voltammetry. It is filed as physicochemical. The conditions noted are these: 0.5 mol/L ferricyanide, 0.1 mol/L compound, pH about 13, 7 days in sealed flask.
The nature of data set [5]: Solubility in water of formula (I) compounds in the presence of different bases (Example 2). To be noted: for relative solubility, 1,1,3,3-Tetramethyl guanidine: 1.2 mol/L 1,1,3,3-Tetramethyl guanidine; for relative solubility, (NH3)aq: 1.2 mol/L (NH3)aq; for relative solubility, CsOH: 1.2 mol/L CsOH; for relative solubility, KOH: 1.2 mol/L KOH; for relative solubility, LiOH: 1.2 mol/L LiOH; for relative solubility, N-Ethyl pyrrolidine: 1.2 mol/L N-Ethyl pyrrolidine; for relative solubility, NEt3: 1.2 mol/L NEt3; for relative solubility, NMe4OH: 1.2 mol/L NMe4OH; for relative solubility, PBu4OH: 1.2 mol/L PBu4OH; for relative solubility, RbOH: 1.2 mol/L RbOH; for solubility: aqueous NaOH solution, aqueous buffer.

Data set [6] is described as follows: physchem. To be noted: aqueous buffer. The source holds these as a separate data set.
[7] abbreviates: footnote a (Hall, J. Amer. Chem. Soc 1957).
The mark [8] stands for this setting: literature (Charlot) or predicted by COSMO-RS.
[9] abbreviates: footnote b, hexa-coordinate cation within a crystal (Shannon 1976).
Setting [10] is: relative to solubility in 1 mol/L NaOH.

Take `CCN(C)C` [Dimethyl, ethyl amine, ethyldimethylamine]: the pKa (commonly the pH at which an ionisable group is half protonated) in data set [1] (setting [7]) was 10.0^a.
As to `O=C1c2ccccc2C(=O)c2c1ccc(O)c2O` [alizarin], the solubility (commonly the dissolved amount per volume that the medium holds) in the data set “physchem [2]” amounted to 23 mM (≈ 5520 µg/mL).
In the case of `C[N+]1(C)CCCCC1.[OH-]` [N,N-Dimethyl piperidinium, N,N-dimethylpiperidinium hydroxide], in data set [1] (setting [8]), the pKa was 14.
Consider `CN1CCCC1` [N-Methyl pyrrolidine, N-methylpyrrolidine], for which the pKa in data set [1] (setting [7]) is reported as 10.5^a.
For the compound `[Cs+].[OH-]` [Caesium hydroxide], the Volume in data set [3] is recorded as 19.5 Å^3. In addition, the Radius in data set [3] (setting [9]) was 1.67^b Å.
`CCCCCCCCCCCCCCCC[N+](C)(C)C` [Trimethyl, cetyl ammonium, trimethyl cetylammonium hydroxide]: in data set [1] (setting [8]), the pKa is reported as 14.
Take `[Na+].[OH-]` [Sodium hydroxide]: the Volume in data set [3] was 4.4 Å^3. Besides, in data set [3] (setting [9]), the Radius was 1.02^b Å.
As to `C[N+]1(C)CCCC1.[OH-]` [N,N-Dimethyl pyrrolidinium, N,N-dimethylpyrrolidinium hydroxide], the pKa in data set [1] (setting [8]) was 14.
As to `C[N+](C)(C)Cc1ccccc1.[OH-]` [Tetramethyl, benzyl ammonium, trimethyl benzylammonium hydroxide], the pKa in data set [1] (setting [8]) was 14.
Take `CCN(C)CC` [Methyl, diethyl amine, diethylmethylamine]: the pKa in data set [1] (setting [7]) is given as 10.3^a.
As for `C[N+](C)(C)CCO.[OH-]` [CholineOH, choline hydroxide], in data set [4], the “SOC after a contact time of 7 days with ferricyanide” value was 82.7%.
As for `[OH-].[Rb+]` [Rubidium hydroxide], in data set [3], the Volume is 14.7 Å^3. Also, in data set [3] (setting [9]), the Radius is recorded as 1.52^b Å.
For `[K+].[OH-]` [Potassium hydroxide], in data set [3], the Volume is given as 11.0 Å^3. In addition, the Radius in data set [3] (setting [9]) is 1.38^b Å.
Turning to `O=C(O)c1ccc2c(c1)C(=O)c1ccccc1C2=O`, in data set [5] (setting [10]), the “relative solubility, 1,1,3,3-Tetramethyl guanidine” value is reported as “×4100”; the “relative solubility, (NH3)aq” value is “×50”; the “relative solubility, CsOH” value was “×70”; the “relative solubility, KOH” value is “×10”. For the same compound, in data set [5] (setting [10]), the “relative solubility, LiOH” value is “×14”; the “relative solubility, N-Ethyl pyrrolidine” value is “×2000”; the “relative solubility, NEt3” value is reported as “×2000”; the “relative solubility, NMe4OH” value was “×3700”. Besides, in data set [5] (setting [10]), the “relative solubility, PBu4OH” value was “×4100” and the “relative solubility, RbOH” value is given as “×150”. The “relative solubility, NMe3” value in data set [5] (1.2 mol/L NMe3, relative to solubility in 1 mol/L NaOH) was “×2000”. The solubility in data set [5] amounted to 250 µM.
As to `O=C1c2ccccc2C(=O)c2c(O)ccc(O)c21` [quinizarin], in the data set “physchem [6]”, the concentration in solution (solubility) came to 31 mM (≈ 7450 µg/mL).
As for `N` [Ammonia], the Volume in data set [3] was 13.6 Å^3. In data set [3] (footnote c (Sidey 2016)), the Radius was 1.48^c Å.
For the compound `CCN1CCCCC1` [N-Ethyl piperidine, N-ethylpiperidine], the pKa in data set [1] (setting [7]) is 10.4^a.
With `C[n+]1ccccc1.[OH-]` [N-Methyl pyridinium, N-methylpyridinium hydroxide], the pKa in data set [1] (setting [8]) is given as 14.
As to `[Li+].[OH-]` [Lithium hydroxide], the Volume in data set [3] is listed as 1.8 Å^3. The Radius in data set [3] (setting [9]) is listed as 0.76^b Å.
In the case of `O=C(O)[C@@H]1CCCN1` [proline], in data set [4], the “SOC after a contact time of 7 days with ferricyanide” value was 77.7%.
For the compound `O=C1c2ccccc2C(=O)c2c(O)ccc(O)c21` [drawing 31, quinizarin], in data set [5] (setting [10]), the “relative solubility, 1,1,3,3-Tetramethyl guanidine” value is given as “×82”; the “relative solubility, (NH3)aq” value is “×3”; the “relative solubility, CsOH” value is recorded as “×32”; the “relative solubility, KOH” value is “×8”. Moreover, in data set [5] (setting [10]), the “relative solubility, LiOH” value is given as “×0.03”; the “relative solubility, N-Ethyl pyrrolidine” value was “×13”; the “relative solubility, NEt3” value is recorded as “×3”; the “relative solubility, NMe4OH” value is “×213”. Further, in data set [5] (setting [10]), the “relative solubility, PBu4OH” value is “×211” and the “relative solubility, RbOH” value is recorded as “×16”. Besides, the “relative solubility, DBU” value in data set [5] (1.2 mol/L DBU, relative to solubility in 1 mol/L NaOH) is given as “×234”. The “relative solubility, N-Methyl pyrrolidine” value in data set [5] (1.2 mol/L N-Methyl pyrrolidine, relative to solubility in 1 mol/L NaOH) is given as “×7”. In data set [5] (1.2 mol/L Trimethyl, benzyl ammonium, relative to solubility in 1 mol/L NaOH), the “relative solubility, Trimethyl, benzyl ammonium” value is reported as “×255”. The solubility in data set [5] turned out to be 3800 µM.
On to `CCCCCCCCCCCC[N+](C)(C)CCCCCCCCCCCC` [Didodecyl, dimethyl ammonium, didodecyldimethylammonium hydroxide], for which the pKa in data set [1] (setting [8]) is reported as 14.
Consider `C[N+](C)(C)C` [Tetramethyl ammonium, tetramethylammonium hydroxide], for which the pKa in data set [1] (setting [8]) is listed as 14.
On to `CN(C)C(=N)N(C)C` [1,1,3,3-Tetramethyl guanidine, 1,1,3,3-tetramethylguanidine], for which, in data set [1] (setting [8]), the pKa is listed as 13.0.
`C1CCC2=NCCCN2CC1` [DBU, 1,8-diazabicyclo[5.4.0]undec-7-ene]: the pKa in data set [1] (setting [8]) is reported as 13.5.
For `CCN1CCCC1` [N-Ethyl pyrrolidine, N-ethylpyrrolidine], in data set [1] (setting [8]), the pKa is recorded as 10.7.
